Values belong to the molecule of their own block, whether it stands above or below them. No end group written: not given here.
How the values were obtained:
[1] = target: T1, human estrogen receptor αLBD (Homo sapiens, UniProt P03372); assay: FRET probe (CFP-SRC-1 LXXLL-linker-ER αLBD-YFP) for estrogen receptor agonist/antagonist in living CHO-K1 cells; format: cell-based
T1 construct: expressed in transfected cells; host or cells: CHO-K1 (Chinese hamster ovary), pcDNA3.1(+)
T1 sequence (P03372 with tags, fused parts or gaps L306P/I326L/L327I/T334S/V368G/T371N/T483N/Q502R/S527N): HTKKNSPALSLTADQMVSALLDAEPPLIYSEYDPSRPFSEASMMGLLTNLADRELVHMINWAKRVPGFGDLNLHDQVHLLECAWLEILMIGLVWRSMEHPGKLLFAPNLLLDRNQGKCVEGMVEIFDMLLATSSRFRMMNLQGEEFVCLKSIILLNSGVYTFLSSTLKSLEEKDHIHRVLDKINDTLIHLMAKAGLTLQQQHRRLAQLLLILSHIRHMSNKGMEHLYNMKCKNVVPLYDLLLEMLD
Description: (§1) Each cell was cultured in Ham's F-12 medium supplemented with 10% fetal calf serum (FCS)b and Dulbecco's modified eagle medium supplemented with 10% FCS, 1.0 mM sodium pyruvate and 0.1 mM nonessential amino acids respectively at 37° C. in a humidified atmosphere 5% CO2. Cells were transfected with an expression vector pcDNA3.1(+) containing a probe in the presence of lipofectAMINE 2000 reagent in glass bottom dishes.
(§2) The cells were Chinese hamster ovary (CHO-K1) cells for a probe for detecting an agonist or an antagonist to an estrogen receptor or a peroxisome growth factor-activating receptor, and pig kidney (PK-15) cells for a probe for detecting an agonist or an antagonist to an androgen receptor.
(§3) Before imageing, the culture medium was replaced with Hanks' balanced salt solution.
(§4) The exposure time at 440±10 nm excitation was 100 ms.
The ED50 values were converted to relative recruitment ability (RRA; Non-Patent Document 34) to compare the relative abilities of the tested compounds to promote the recruitment of the binding-responsive site to the ligand-recognition site. The RRA were calculated using the following equation.

PPAR γ-LBD = target: T2, PPAR γ-LBD (Homo sapiens, UniProt P37231); assay: FRET probe for peroxisome proliferator-activated receptor agonist/antagonist in living CHO-K1 cells; format: cell-based; conditions: 10 μM
T2 construct: expressed in transfected cells; host or cells: CHO-K1, pcDNA3.1(+)
T2 sequence (P37231 235-505): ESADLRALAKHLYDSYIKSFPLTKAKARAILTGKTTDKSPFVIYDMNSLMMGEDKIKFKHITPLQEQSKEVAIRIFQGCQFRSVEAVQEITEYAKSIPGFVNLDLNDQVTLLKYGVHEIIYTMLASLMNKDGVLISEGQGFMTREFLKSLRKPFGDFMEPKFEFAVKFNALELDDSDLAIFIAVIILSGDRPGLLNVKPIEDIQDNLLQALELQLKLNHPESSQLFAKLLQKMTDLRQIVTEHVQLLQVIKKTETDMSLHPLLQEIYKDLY
Description: According to nearly the same procedure as in the case of the above (A), a plasmid was constructed.
as §1, §2, §3, §4

[2] = target: T3, human androgen receptor LBD (Homo sapiens, UniProt P10275); assay: FRET probe for androgen receptor agonist/antagonist in living PK-15 cells; format: cell-based
T3 construct: expressed in transfected cells; host or cells: PK-15 (pig kidney), pcDNA3.1(+)
T3 sequence (P10275 674-912): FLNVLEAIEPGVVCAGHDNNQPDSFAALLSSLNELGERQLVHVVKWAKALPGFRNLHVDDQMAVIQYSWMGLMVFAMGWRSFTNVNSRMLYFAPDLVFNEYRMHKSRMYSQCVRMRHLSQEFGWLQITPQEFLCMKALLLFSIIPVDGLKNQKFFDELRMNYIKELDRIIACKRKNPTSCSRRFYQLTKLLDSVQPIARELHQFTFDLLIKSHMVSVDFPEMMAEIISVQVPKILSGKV
Description: According to nearly the same procedure as in the cases of the above (A) and (B), a plasmid was constructed.
as §1, §2, §3, §4

[3] = target: T4, peroxisome growth factor-activating receptor γ ligand-binding domain (235-505aa) (Homo sapiens (Human), UniProt P37231 235-505); assay: intramolecular CFP/YFP FRET of the probe in CHO-K1 cells, 10 µM 15d-PGJ2
T4 construct: also called PPAR γ-LBD
T4 sequence: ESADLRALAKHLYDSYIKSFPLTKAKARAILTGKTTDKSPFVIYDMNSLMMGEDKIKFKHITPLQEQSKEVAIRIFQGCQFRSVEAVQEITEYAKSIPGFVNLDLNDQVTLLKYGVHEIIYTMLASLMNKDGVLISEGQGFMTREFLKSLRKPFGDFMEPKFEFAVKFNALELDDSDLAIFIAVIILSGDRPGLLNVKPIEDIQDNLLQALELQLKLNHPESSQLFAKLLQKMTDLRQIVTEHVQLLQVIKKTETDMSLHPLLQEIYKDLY
Description: CHO-K1 cells expressing the probe (FIG. 2B) were stimulated by 10 μM 15d-PGJ₂ and the event was observed by following time course fo the changes in FRET.

[4] = target: T5, human estrogen receptor α ligand-binding domain (305-550aa) (human, UniProt P03372 305-550); assay: cell-based or functional assay
T5 sequence (looked up): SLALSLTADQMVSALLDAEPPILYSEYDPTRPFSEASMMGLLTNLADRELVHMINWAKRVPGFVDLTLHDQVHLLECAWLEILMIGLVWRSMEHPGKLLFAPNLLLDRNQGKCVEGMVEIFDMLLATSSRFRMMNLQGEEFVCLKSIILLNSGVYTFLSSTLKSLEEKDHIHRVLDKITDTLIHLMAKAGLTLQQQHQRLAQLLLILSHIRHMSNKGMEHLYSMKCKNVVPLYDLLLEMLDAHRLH

[5] = target: T5, human estrogen receptor α …; assay: intramolecular CFP/YFP FRET in living cells, 100 nM E2
[6] = target: T6, human androgen receptor ligand-binding domain (672-910aa) (human, UniProt O97775 665-903 (Pan troglodytes entry)); assay: intramolecular CFP/YFP FRET in living cells, 100 nM DHT
T6 construct: also called AR-LBD; ligand-recognition site
T6 sequence: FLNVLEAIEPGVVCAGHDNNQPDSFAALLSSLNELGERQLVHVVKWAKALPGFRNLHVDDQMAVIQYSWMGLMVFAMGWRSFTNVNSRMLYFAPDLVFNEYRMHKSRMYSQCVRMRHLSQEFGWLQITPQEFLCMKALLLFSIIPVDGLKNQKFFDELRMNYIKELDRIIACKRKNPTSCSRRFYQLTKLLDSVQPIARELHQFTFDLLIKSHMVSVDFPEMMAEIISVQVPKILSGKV

Molecule: 4-hydroxytamoxifen [OHT]
- change in FRET response [1]: no increase in the FRET

Molecule: CCCCC/C=C/C=C1/C(=O)C=C[C@@H]1C/C=C\CCCC(=O)O [15d-PGJ2, 15-deoxy-Δ^12,14-prostaglandin J2]
- change in CFP/YFP emission ratio (480/535 nm) (PPAR γ-LBD; FIG. 4B-a): decrease in CFP/YFP emission ratio (480/535 nm) (increase in FRET)
- time for emission ratio decrease to reach plateau (PPAR γ-LBD; FIG. 4B-a): ≤ 1000 s

Molecule: CC(C)(c1ccc(OCC2CO2)cc1)c1ccc(OCC2CO2)cc1 (stereo not drawn) [BADGE, bisphenol A diglycidyl ether]
- change in emission ratio (FRET response) (PPAR γ-LBD; FIG. 7): no significant change in the emission ratio

Molecule: C[C@]12CCC(=O)C=C1CC[C@@H]1[C@@H]2[C@@H](O)C[C@@]2(C)[C@H]1CC[C@]2(O)C(=O)CO [cortisol]
- FRET response over tested concentration range ([2]; PK-15 cells, 1.0×10^−4 to 1.0×10^−11 M, FIG. 5B): did not show the response at any tested concentration

Molecule: CC12CC1(C)C(=O)N(c1cc(Cl)cc(Cl)c1)C2=O (stereo not drawn) [procymidone]
- change in FRET response, antagonist alone ([2]; 100 nM alone, PK-15, FIG. 8): no significant increase in the FRET
- FRET response with DHT plus antagonist ([2]; DHT 1.0, 10, 100 nM + 10 μM antagonist, PK-15, FIG. 8): the FRET level increased in a dose dependent manner of DHT

Molecule: nonylphenol [NP]
- relative recruitment ability (RRA) ([1]; RRA=(conc. E2 [50% response]/conc. EDC [50% response])×100, E2 set at 100): 3.0
- EC50 ([1]; read-out: EC50 (concentration inducing 50% response of LXXLL motif recruitment to ER αLBD), CHO-K1 cells expressing the probe, from response curves of FIG. 5A, tested 1.0×10^−4 to 1.0×10^−11 M): 260 nM

- binding result [3]: binds
- EC50 of the small-molecule ligand DES for the FRET response of the probe (CHO-K1 cells) [4]: 13 nM
- EC50 of the small-molecule ligand E2 for the FRET response of the probe (CHO-K1 cells) [4]: 8 nM
- EC50 of the small-molecule ligand NP for the FRET response of the probe (CHO-K1 cells) [4]: 260 nM
B1: steroid receptor coactivator 1 NR box II (687-697aa) coactivator peptide (peptide)
peptide: HKILHRLLQEG
modifications: also: segment of CFP–NR box–GGNGG-type linker–LBD–YFP fusion probe
notes: Not tested as a free peptide; also called SRC-1 NR box II

- binding result [5]: no binding
- binding result [6]: no binding
Molecule: HKIAHRAAQEG (also called mutant LXXLL motif)
